Source: PMC3083694, “Effects of Intermediates between Vitamins K2 and K3 on Mammalian DNA Polymerase Inhibition and Anti-Inflammatory Activity” (International Journal of Molecular Sciences, 2011)

What was measured:
Human DNA polymerase κ = biological target: T1, Human DNA polymerase κ (Homo sapiens, UniProt Q9UBT6); test: DNA polymerase activity assay, human pol κ; format: biochemical; conditions: for Inhibitory effect on human pol κ activity: 50 μM of each compound, Figure 2
T1 construct: made in house
T1 sequence (Q9UBT6 1-560 limits assumed): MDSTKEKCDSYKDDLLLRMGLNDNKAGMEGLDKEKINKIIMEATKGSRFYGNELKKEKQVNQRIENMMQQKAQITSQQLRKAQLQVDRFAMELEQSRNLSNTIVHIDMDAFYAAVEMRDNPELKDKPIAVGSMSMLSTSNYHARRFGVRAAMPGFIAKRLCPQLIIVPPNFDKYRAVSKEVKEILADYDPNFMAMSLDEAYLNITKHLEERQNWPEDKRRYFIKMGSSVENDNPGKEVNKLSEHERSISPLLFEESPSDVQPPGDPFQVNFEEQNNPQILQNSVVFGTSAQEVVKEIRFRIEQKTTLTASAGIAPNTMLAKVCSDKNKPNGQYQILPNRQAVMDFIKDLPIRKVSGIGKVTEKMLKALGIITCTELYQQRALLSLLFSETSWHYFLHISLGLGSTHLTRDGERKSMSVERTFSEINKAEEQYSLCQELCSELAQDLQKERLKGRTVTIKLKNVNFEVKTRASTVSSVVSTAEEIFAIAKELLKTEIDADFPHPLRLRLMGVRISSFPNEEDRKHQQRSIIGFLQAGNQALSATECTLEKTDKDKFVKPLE
Experimental: Pols from mammals, a fish (cherry salmon), an insect (fruit fly) and a plant (cauliflower) were purified, and prokaryotic pols and other DNA metabolic enzymes, such as T7 RNA polymerase, T4 polynucleotide kinase and bovine deoxyribonuclease I, were purchased as described in our previous report. The activities of all pols and other DNA metabolic enzymes were measured as described in previous reports.
The components of the pol assay were poly(dA)/oligo(dT)18 and dTTP as the DNA template-primer and 2′-deoxyribonucleoside 5′-triphosphate (dNTP) substrate, respectively. VK2, VK3, and their synthesized derivatives (i.e., MK-3, MK-2 and MK-1) were dissolved in dimethyl sulfoxide (DMSO) at various concentrations and sonicated for 30 s. The sonicated samples (4 μL) were mixed with 16 μL of each pol enzyme (final amount, 0.05 units) in 50 mM Tris-HCl (pH 7.5) containing 1 mM dithiothreitol, 50% glycerol and 0.1 mM EDTA, and kept at 0 °C for 10 min. These inhibitor–enzyme mixtures (8 μL) were added to 16 μL of each standard enzyme reaction mixture (50 mM Tris-HCl [pH 7.5], 1 mM dithiothreitol, 1 mM MgCl2, 15% glycerol, 10 μM poly(dA)/oligo(dT)18 and 10 μM [^3H]-dTTP), and incubation was carried out at 37 °C for 60 min, except for Taq pol, which was incubated at 74 °C for 60 min. Activity without the inhibitor was considered to be 100%, and the activity remaining at each concentration of inhibitor was determined relative to this value. One unit of pol activity was defined as the amount of enzyme that catalyzed the incorporation of 1 nmol dNTP (dTTP) into the synthetic DNA template-primer (poly(dA)/oligo(dT)18, A/T = 2/1) in 60 min at 37 °C under normal reaction conditions for each enzyme (scintillation counts: approximately 1 pmol of incorporated radioactive nucleotides = 100 cpm).

[1] = test system: TPA-induced edema on mouse ear; test: TPA-induced mouse ear inflammatory test; format: in vivo; conditions: 250 or 500 μg applied to ear 30 min before TPA (0.5 μg); edema evaluated after 7 h; Figure 3
Experimental: All animal studies were performed according to the guidelines outlined in the “Care and Use of Laboratory Animals” of Kobe University. The animals were anesthetized with pentobarbital before undergoing cervical dislocation. Female 8-week-old C57BL/6 mice that had been bred in-house with free access to food and water were used for all experiments. All of the mice were maintained under a 12-h light/dark cycle and housed at a room temperature of 25 °C.
The mouse inflammatory test was performed according to Gschwendt’s method. In brief, an acetone solution of the VK2 and VK3 intermediates (250 or 500 μg in 20 μL) or 20 μL of acetone as a vehicle control was applied to the inner part of the mouse ear. Thirty minutes after the test compound was applied, a TPA solution (0.5 μg/20 μL of acetone) was applied to the same part of the ear. To the other ear of the same mouse, methanol, followed by TPA solution, was applied as a control. After 7 h, a disk (6 mm diameter) was obtained from the ear and weighed. The inhibitory effect (IE) is presented as a ratio of the increase in weight of the ear disks: IE=[(TPA only)−(tested compound plus TPA)]/[(TPA only)−(vehicle)]×100

[2] = test system: LPS-induced production of TNF-α in RAW264.7 cells; test: LPS-induced TNF-α production in mouse macrophages (ELISA); format: cell-based; conditions: Figure 4; for Suppression of LPS-stimulated production of TNF-α: then 100 ng/mL LPS 24 h; for Inhibitory effect on LPS-stimulated TNF-α production: 10 and 50 μM tested, concentration not specified
Experimental: A mouse macrophage cell line, RAW264.7, was obtained from American Type Culture Collection (ATCC) (Manassas, VA, U.S.). The cells were cultured in Eagle’s Minimum Essential Medium (MEM) supplemented with 4.5 g of glucose per liter plus 10% fetal calf serum, 5 mM L-glutamine, 50 units/mL penicillin and 50 units/mL streptomycin. The cells were cultured at 37 °C in standard medium in a humidified atmosphere of 5% CO2–95% air.
RAW264.7 cells were placed in a 12-well plate at 5 × 10^4 cells/well and incubated for 24 h. The cells were pretreated with the VK2 and VK3 intermediates (final concentrations of 10 and 50 μM) for 30 min before the addition of 100 ng/mL of LPS. After stimulation with LPS for 24 h, the cell culture medium was collected to measure the amount of TNF-α secreted. The concentration of TNF-α in the culture medium was quantified by using a commercially available enzyme-linked immunosorbent assay (ELISA) development system (Bay Bioscience Co., Ltd., Kobe, Japan) in accordance with the manufacturer’s protocol.

Compound: CC(C)=CCC1=C(C)C(=O)c2ccccc2C1=O [MK-1]
- Inhibitory effect on human pol κ activity (Human DNA polymerase κ): inhibited the activity
- Anti-inflammatory activity toward TPA-induced edema on mouse ear [1]: suppressed inflammation
- Suppression of LPS-stimulated production of TNF-α ([2]; 50 μM compound 30 min): significantly suppressed

Compound: CC(C)=CCC/C(C)=C/CC1=C(C)C(=O)c2ccccc2C1=O [MK-2]
- Inhibitory effect on human pol κ activity (Human DNA polymerase κ): inhibited the activity
- IC50 (Human DNA polymerase κ; Y-family pol, read-out: IC50 Value of MK-2, Human DNA polymerase κ): 35.3 ± 2.1 µM
- Anti-inflammatory activity toward TPA-induced edema on mouse ear [1]: suppressed inflammation
- Suppression of LPS-stimulated production of TNF-α ([2]; 10 μM compound 30 min): significantly suppressed
- Suppression of LPS-stimulated production of TNF-α ([2]; 50 μM compound 30 min): significantly suppressed

Compound: CC(C)=CCC/C(C)=C/CC/C(C)=C/CC1=C(C)C(=O)c2ccccc2C1=O [MK-3]
- Inhibitory effect on human pol κ activity (Human DNA polymerase κ): inhibited the activity
- Anti-inflammatory activity toward TPA-induced edema on mouse ear [1]: weak effect
- Inhibitory effect on LPS-stimulated TNF-α production [2]: moderate inhibitory effect

Compound: CC(C)=CCC/C(C)=C/CC/C(C)=C/CC/C(C)=C/CC1=C(C)C(=O)c2ccccc2C1=O [MK-4, menaquinone 4, reference compound]
- Inhibitory effect on human pol κ activity (Human DNA polymerase κ): had no effect on pol activity
- Anti-inflammatory activity toward TPA-induced edema on mouse ear [1]: weak effect
- Inhibitory effect on LPS-stimulated TNF-α production [2]: moderate inhibitory effect
